Experimental data published in patent publication US20230043678A1, “USE OF 5-METHYLTETRAHYDROFOLATE” (priority 2019, published 2023).
Like-named read-outs stand apart in the source and are kept apart here.

Tests used:
[1] = system: transcription factors (Nkx2.5, amhc, vmhc, hand2, has2, mef2a, mef2c, bmp2b, ephrinB2, ephB4) in zebrafish embryos; experiment: qRT-PCR expression of transcription factors during development of zebrafish embryos (Example 4); assay type: in vivo; details: 8 mM FA
Description: In order to explore an effect of folic acid on epigenetics during development of the zebrafish embryos, the zebrafish embryos at different developmental stages were collected for testing. […] A fluorescent dye SYBR Green was used in the qRT-PCR experiment. The qRT-PCR was conducted according to the instructions of an SYBR Green qPCR Master Mix kit and a detection was conducted on an ABI (HT 7900) PCR instrument. […] An expression of β-actin was used as an internal reference and relative expression levels of other genes were calculated by a ΔΔCt method.

fetal rat heart = experiment: Effect of high-dose folic acid on fetal rat heart, histopathology (Example 8); assay type: in vivo, SD rats; details: for Development delay / Malformation cases / Malformation rate / Sparse myocardial trabeculae / Ventricular defects/septal defects: fetal rats
Description: 28 each of female and male adult healthy SD rats, weighing about 200-250 g, were purchased from SPF (Beijing) biotechnology co., LTD. After all animals were purchased, general physiological indicators, body weight and feeding of the animals were observed. The animals were adaptively fed for one week. […] The animals were fed day and night in natural lighting, and at a room temperature of 18-26° C. and a relative humidity of 40%-70%.
The obtained 16 pregnant mice were randomly divided into 4 groups with 4 rats in each group according to body weight: a normal group, a high-dose folic acid group, a middle-dose folic acid group and a low-dose folic acid group. The high-dose folic acid (36.44 mg/kg) group, the middle-dose folic acid (18.22 mg/kg) group, the low-dose folic acid (9.11 mg/kg) group and a blank control group were separately set. The pregnant mice were intragastrically administrated with a 1 ml/100 g solution. The pregnant mice were given pure water in the normal group. The pregnant mice in the other groups started to be administrated on the 2nd day after grouping once a day for 21 consecutive days. The pregnant mice in each group freely ate and drunk. After the female rats were administrated for 7 days, male and female rats were mated in a cage at a ratio of 1:1 overnight, a vaginal plug was checked the next morning, a day when the vaginal plug was found was regarded as day 0 of pregnancy, the pregnant mice were separately fed and administrated for 21 consecutive days, and a fetus was obtained by cesarean section.
Routine histopathologic paraffin sample preparation, serial section (a thickness of 5 μm) and HE staining were conducted. Sample preparation: routine histopathologic paraffin sample sections were prepared and each sample was 1 paraffin block; and section: each numbered sample had 20 sections. A starting point of mounting was when the paraffin block was sliced, there were ventricular mounting slices and 4 consecutive tissue points were mounted on each glass slide on average. HE staining: there were 20 glass slides for each sample and every other 1 slide was taken for HE staining, a total of 10 slides. Observation and analysis: Leica panoramic image acquisition and comparative analysis were conducted. Fetal rat hearts were dissected and sliced for observation, and the results were as follows.

heart of fetal mice = experiment: Effects of folic acid and 5-methyltetrahydrofolate on heart development of fetal/neonatal mice, histology (Example 10); details: mouse, in vivo
Description: 75 7-week-old female C57BL/6J mice and 25 8-week-old male C57BL/6J mice were provided by Shanghai Lingchang Biotechnology Co., Ltd. with a certificate number of SCXK (Shanghai) 2018-0003. […] The female mice were randomly divided into 5 groups according to body weight: a solvent control group, a folic acid (151.66 μg/kg) group, a folic acid (303.32 μg/kg) group, a calcium 5-methyltetrahydrofolate (converted to folic acid, 151.66 μg/kg) group and a calcium 5-methyl tetrahydrofolate (converted to folic acid, 303.32 μg/kg) group. 1.1275 unit mass of the calcium 5-methyltetrahydrofolate equaled to 1 unit mass of the folic acid.
15 mice were in each group and numbered by a toe clipping method. The mice were intragastrically administrated once a day on the second day after grouping. One week after the pre-administration, male and female mice were caged at a ratio of […], a vaginal plug was observed every day from the next day, and a day when the vaginal plug was seen was recorded as day 0.5 of pregnancy. After 14 days of caging, the female mice stopped the administration, the male mice were removed, and the pregnant female mice were fed alone until litter.
After the detection, thoracic and abdominal cavities of the mice were dissected, cardiac morphology and beating were observed under a stereoscopic microscope (SMZ168, Motic, Xiamen, Fujian, China), and photographs and video recordings were taken (Motic Image Plus 3.0, Motic, Xiamen, Fujian, China). The mice were sacrificed and the hearts, the livers, the kidneys and the lungs were harvested. The hearts and the livers of the neonatal mice were selected from each group and fixed with 4% paraformaldehyde, the fixed hearts and livers were embedded in paraffin, the embedded hearts and livers were sliced and the slices were stained with H&E. A half of the other tissues were immersed in RNA later for fixation and the other half were directly immersed in liquid nitrogen and frozen for a subsequent experiment.
1-day-old neonatal mice were sacrificed, the hearts were taken and fixed with 4% paraformaldehyde, the fixed hearts were embedded in paraffin, the embedded hearts were sliced, the slices were stained with H&E and pictures were taken under a normal microscope.

zebrafish embryos [2] = details: 6 mM FA
Description: Transgenic zebrafish (fli-1:EGFP) were from the Model Animal Research Center of Nanjing University. Adult zebrafish aged less than 1 were used for experiment and fed at a water pH value of 7±0.2, a temperature around 28° C. and a ratio of illumination to darkness of 14 h:10 h, and with Artemia salina eggs twice a day. Three zebrafish, one female, two males, were placed in a spawning box the night before and eggs were collected the next morning. Fish eggs were placed in an embryo culture medium (prepared with 0.2 g/L of sea salt) and cultured at 28° C. […] Dead embryos were cleaned up in time. Each experiment was conducted in triplicate. […] A phenotype of malformation was observed, the number of all abnormal zebrafish where the malformation was present was recorded and a malformation rate and a rescue rate of each group were calculated. Morphological defects, a heart rate, cardiac morphology and other indicators were observed and evaluated by an SMZ745T inverted stereomicroscope.

zebrafish embryos [3] = experiment: Teratogenic effect of folic acid on zebrafish embryos (Example 3); details: for embryo coverage: 8 hpf
Description: Transgenic zebrafish (fli-1:EGFP) were from the Model Animal Research Center of Nanjing University. Adult zebrafish aged less than 1 were used for experiment and fed at a water pH value of 7±0.2, a temperature around 28° C. and a ratio of illumination to darkness of 14 h:10 h, and with Artemia salina eggs twice a day. Three zebrafish, one female, two males, were placed in a spawning box the night before and eggs were collected the next morning. Fish eggs were placed in an embryo culture medium (prepared with 0.2 g/L of sea salt) and cultured at 28° C. […] Dead embryos were cleaned up in time. A phenotype of malformation was observed, the number of all abnormal zebrafish where the malformation was present was recorded and a malformation rate and a rescue rate of each group were calculated. Morphological defects, a heart rate, cardiac morphology and other indicators were observed and evaluated by an SMZ745T inverted stereomicroscope.

[4] = folic acid 9.11 mg/kg intragastric
[5] = folic acid 18.22 mg/kg intragastric
[6] = folic acid 36.44 mg/kg intragastric

SMILES: Nc1nc2ncc(CNc3ccc(C(=O)N[C@@H](CCC(=O)O)C(=O)O)cc3)nc2c(=O)[nH]1 [FA, pteroylglutamic acid]
- expression of bmp2b gene ([1]; 24 hpf): decreased an expression of a bmp2b gene
- expression of mef2c gene ([1]; 24 hpf): increased an expression of a mef2c gene
- expression of ephb4 gene ([1]; 48 hpf): inhibited
- expression of has2 gene ([1]; 48 hpf): inhibited
- expression of mef2c gene ([1]; 48 hpf): inhibited
- expression of vmhc gene ([1]; 48 hpf): increased an expression of a vmhc gene
- Development delay (fetal rat heart; [4]): 1
- Malformation cases (fetal rat heart; [4]): 3
- Malformation rate (fetal rat heart; [4]): 10.7%
- Sparse myocardial trabeculae (fetal rat heart; [4]): 1
- Ventricular defects/septal defects (fetal rat heart; [4]): 3
- Development delay (fetal rat heart; [5]): 1
- Malformation cases (fetal rat heart; [5]): 4
- Malformation rate (fetal rat heart; [5]): 15.4%
- Sparse myocardial trabeculae (fetal rat heart; [5]): 2
- Ventricular defects/septal defects (fetal rat heart; [5]): 2
- Development delay (fetal rat heart; [6]): 3
- Malformation cases (fetal rat heart; [6]): 4
- Malformation rate (fetal rat heart; [6]): 25%
- Sparse myocardial trabeculae (fetal rat heart; [6]): 1
- Ventricular defects/septal defects (fetal rat heart; [6]): 4
- litter rate of rats (fetal rat heart; folic acid, high dose): reduce the litter rate under a high dose
- ventricular septum disappeared (number of animals) (fetal rat heart; high-dose folic acid group 36.44 mg/kg): 1
- heart slices (H&E) of 1-day-old neonatal mice (heart of fetal mice): A small block of a heart wall was defective
- 10 s heart rate (48 hpf) and body length (72 hpf) (zebrafish embryos [2]): seriously led to bradycardia and a shortened body length of zebrafish
- survival rate of zebrafish (zebrafish embryos [2]; 2-72 hpf): severely led to a low survival rate of zebrafish
- embryo development (zebrafish embryos [2]; 8 hpf): delayed development of the zebrafish embryos
- embryo phenotype (zebrafish embryos [2]; 24 hpf): led to small heads and short tails of zebrafish
- embryo phenotype (zebrafish embryos [2]; 48 hpf): led to pericardium edema, dyspigmentation, and intersegmental vascular hypoplasia of zebrafish
- pericardium edema (zebrafish embryos [2]; 48 hpf): seriously led to pericardium edema of zebrafish
- embryo phenotype (zebrafish embryos [2]; 72 hpf): led to developmental disorders of lower intestinal network blood vessels of the zebrafish
- embryo coverage (zebrafish embryos [3]; 2 mM FA): covered completely
- heart shape and lower intestinal network blood vessels (zebrafish embryos [3]; 2 mM FA, 72 hpf): normal heart shape and normal development of lower intestinal network blood vessels
- heart shape and lower intestinal network blood vessels (zebrafish embryos [3]; FA 4 mM or above, 72 hpf): pericardium edema malformations, atrial and ventricular elongation and developmental disorders of lower intestinal network blood vessels
- embryo coverage (zebrafish embryos [3]; FA groups of other concentrations (4-10 mM)): not covered completely
- survival rate of embryos (zebrafish embryos [3]; all FA groups (2, 4, 6, 8, 10 mM)): low survival rate of embryos
- body length of embryos (zebrafish embryos [3]; folic acid 8 mM, 72 hpf): significantly shortened the body length of the embryos
- embryo morphology (zebrafish embryos [3]; folic acid, 24 hpf): developmental malformation of heads and tails of the embryos
- embryonic heart rate (zebrafish embryos [3]; folic acid, especially at 48 hpf): affected an embryonic heart rate
